Source: patent US20230165252A1, “ACTIVE COMPOUND COMBINATIONS” (Bayer Aktiengesellschaft, priority 2020, published 2023)
Where “and” joins values, the source holds several entries; their conditions need not be identical. Equal entries are not always repeated. Where two headings read alike, the source gives them in different places.

Experiments:
Type in all cases: cell-based
Alternaria alternate = assay: in vitro-Test with Alternaria alternate (microtiter growth inhibition)
Experimental: (§1) The degree of efficacy expressed in % is denoted: 0% means an efficacy, which corresponds to that of the control, while an efficacy of 100% means that no disease is observed.
(§2) If the actual fungicidal activity exceeds the calculated value, then the activity of the combination is super-additive, i.e. a synergistic effect exists. In this case, the efficacy, which was actually observed, must be greater than the value for the expected efficacy (E), that was calculated from the abovementioned formula.
(§3) Example: In Vitro-Test with Fungal Microorganisms
(§4) Wells of 96-well microtiter plates are filled with 10 μl of a preparation of test compound or compound combination in methanol+emulsifier alkylaryl-polyglycol-ether. Thereafter, the solvent is evaporated in a hood. At the next step, 100 μl of liquid potato dextrose medium is given into each well, that has been amended with an appropriate concentration of spores or mycelium suspension of the test fungus.
(§5) With the aid of a photometer, the extinction in all wells is measured at the wavelength of 620 nm.
(§6) The microtiter plates are incubated at 20° C. and 85% relative humidity. The inhibition of growth is determined again photometrically 3-5 days after the application. Efficacy is calculated in relation to the untreated control, 0% efficacy means fungal growth as high as in untreated control while 100% efficacy means no fungal growth is measured.

Cercospora beticola = assay: in vitro-Test with Cercospora beticola (microtiter growth inhibition); settings: alone
Experimental: as §1, §2, §3, §4, §5, §6

Cordana musae = assay: in vitro-Test with Cordana musae (microtiter growth inhibition); settings: single substance
Experimental: as §1, §2, §3, §4, §5, §6

Diaporthe citri = assay: in vitro-Test with Diaporthe citri (microtiter growth inhibition)
Experimental: as §2, §3, §4, §5, §6

Botrytis cinerea = assay: in vitro-Test with Botrytis cinerea (microtiter growth inhibition); settings: applied alone
Experimental: as §1, §2, §3, §4, §5, §6

Parastagonospora nodorum = assay: in vitro-Test with Parastagonospora nodorum (microtiter growth inhibition)
Experimental: as §1, §2, §3, §4, §5, §6

[1] = tested on: Ustilago segetum var. avenae; assay: in vitro-Test with Ustilago segetum var. avenae (microtiter growth inhibition); settings: single compound
Experimental: as §1, §2, §3, §4, §5, §6

## N#Cc1ccccc1NC(=O)c1snc(Cl)c1Cl [isotianil]
Alternaria alternate; 4 ppm, alone
  Efficacy %: 0%
Alternaria alternate; 20 ppm, alone
  Efficacy %: 7%
Alternaria alternate; 100 ppm, alone
  Efficacy %: 0%
Cercospora beticola; 0.8 ppm
  Efficacy %: 17%
Cercospora beticola; 4 ppm
  Efficacy %: 17%
Cercospora beticola; 20 ppm
  Efficacy %: 12%
Cercospora beticola; 100 ppm
  Efficacy %: 29%
Cordana musae; 20 ppm
  Efficacy: 3%
Cordana musae; 100 ppm
  Efficacy: 16%
Diaporthe citri; 0.8 ppm
  Efficacy: 0%
Diaporthe citri; 4 ppm
  Efficacy: 24%
Diaporthe citri; 20 ppm
  Efficacy: 0%
Diaporthe citri; 100 ppm
  Efficacy: 0%
Diaporthe citri; applied alone, 0.8 ppm
  Efficacy: 12%
Diaporthe citri; applied alone, 4 ppm
  Efficacy: 19% and 23%
Diaporthe citri; applied alone, 20 ppm
  Efficacy: 5% and 14%
Diaporthe citri; applied alone, 100 ppm
  Efficacy: 5%

## CC(O)(Cn1cncn1)c1ccc(Oc2ccc(Cl)cc2)cc1C(F)(F)F (stereo not shown) [mefentrifluconazole]
Alternaria alternate; 0.008 ppm, alone
  Efficacy %: 0%
Alternaria alternate; 1.0 ppm, alone
  Efficacy %: 100%
Botrytis cinerea; 0.04 ppm
  Efficacy: 36%
Botrytis cinerea; 0.2 ppm
  Efficacy: 63%
Botrytis cinerea; 1.0 ppm
  Efficacy: 100%
Cercospora beticola; 0.04 ppm
  Efficacy %: 100%
Cercospora beticola; 0.2 ppm
  Efficacy %: 100%
Cordana musae; 0.008 ppm
  Efficacy: 0%
Cordana musae; 1.0 ppm
  Efficacy: 100%
Diaporthe citri; applied alone, 0.04 ppm
  Efficacy: 85%
Diaporthe citri; applied alone, 0.2 ppm
  Efficacy: 100%
Diaporthe citri; applied alone, 1.0 ppm
  Efficacy: 100%
Parastagonospora nodorum; 0.008 ppm
  Efficacy: 85%
Parastagonospora nodorum; 0.04 ppm
  Efficacy: 97%
Parastagonospora nodorum; 0.2 ppm
  Efficacy: 99%
Parastagonospora nodorum; 1.0 ppm
  Efficacy: 100%
[1]; 0.008 ppm
  Efficacy %: 5%
[1]; 0.2 ppm
  Efficacy %: 67%
[1]; 1.0 ppm
  Efficacy %: 100%

## CCCOc1nc2ccc(I)cc2c(=O)n1CCC [proquinazid]
Alternaria alternate; 0.08 ppm, alone
  Efficacy %: 0%
Alternaria alternate; 0.4 ppm, alone
  Efficacy %: 0%
Alternaria alternate; 2 ppm, alone
  Efficacy %: 0%
Alternaria alternate; 10 ppm, alone
  Efficacy %: 0%
Botrytis cinerea; 0.4 ppm
  Efficacy: 0%
Botrytis cinerea; 2 ppm
  Efficacy: 0%
Botrytis cinerea; 10 ppm
  Efficacy: 0%
Cordana musae; 0.080 ppm
  Efficacy: 0%
Cordana musae; 0.4 ppm
  Efficacy: 0%
Cordana musae; 2 ppm
  Efficacy: 0%
Diaporthe citri; applied alone, 0.4 ppm
  Efficacy: 11%
Diaporthe citri; applied alone, 2 ppm
  Efficacy: 0%

## OC(Cc1ccccc1Cl)(Cn1nc[nH]c1=S)C1(Cl)CC1 (stereo not shown) [prothioconazole]
Alternaria alternate; Alternaria, 0.008 ppm, alone, read-out: Efficacy %
  inhibition of growth at 0.008 ppm: 0%
Alternaria alternate; Alternaria, alone, read-out: Efficacy %
  inhibition of growth at 0.2 ppm: 100%
Alternaria alternate; Alternaria, 1.0 ppm, alone, read-out: Efficacy %
  inhibition of growth at 1 ppm: 100%
Alternaria alternate; Alternaria, applied alone, 0.04 ppm, read-out: Efficacy
  inhibition of growth at 0.04 ppm: 32%
Alternaria alternate; Alternaria, applied alone, read-out: Efficacy
  inhibition of growth at 0.2 ppm: 99%
Alternaria alternate; Alternaria, applied alone, 1.0 ppm, read-out: Efficacy
  inhibition of growth at 1 ppm: 100%
Cercospora beticola; Cercospora beticola, 0.008 ppm, read-out: Efficacy %
  inhibition of growth at 0.008 ppm: 0%
Cercospora beticola; Cercospora beticola, 0.04 ppm, read-out: Efficacy %
  inhibition of growth at 0.04 ppm: 88%
Cordana musae; Neocordana musae, 0.008 ppm, read-out: Efficacy
  inhibition of growth at 0.008 ppm: 0%
Cordana musae; Neocordana musae, 0.04 ppm, read-out: Efficacy
  inhibition of growth at 0.04 ppm: 64%
Cordana musae; Neocordana musae, 0.2 ppm, read-out: Efficacy
  inhibition of growth at 0.2 ppm: 100%

## Cc1cc(C)nc(Nc2ccccc2)n1 [pyrimethanil]
Alternaria alternate; Alternaria, 0.8 ppm, alone, read-out: Efficacy %
  inhibition of growth at 0.8 ppm: 88%
Alternaria alternate; Alternaria, 4 ppm, alone, read-out: Efficacy %
  inhibition of growth at 4 ppm: 99%
Alternaria alternate; Alternaria, 20 ppm, alone, read-out: Efficacy %
  inhibition of growth at 20 ppm: 100%
Alternaria alternate; Alternaria, applied alone, 0.8 ppm, read-out: Efficacy
  inhibition of growth at 0.8 ppm: 100%
Alternaria alternate; Alternaria, applied alone, 4 ppm, read-out: Efficacy
  inhibition of growth at 4 ppm: 100%
Alternaria alternate; Alternaria, applied alone, 20 ppm, read-out: Efficacy
  inhibition of growth at 20 ppm: 100%
Botrytis cinerea; 0.8 ppm
  Efficacy: 96%
Botrytis cinerea; 4 ppm
  Efficacy: 99%
Cercospora beticola; Cercospora beticola, 0.8 ppm, read-out: Efficacy %
  inhibition of growth at 0.8 ppm: 0%
Cercospora beticola; Cercospora beticola, 20 ppm, read-out: Efficacy %
  inhibition of growth at 20 ppm: 100%
Cordana musae; Neocordana musae, 0.8 ppm, read-out: Efficacy
  inhibition of growth at 0.8 ppm: 9%
Cordana musae; Neocordana musae, 20 ppm, read-out: Efficacy
  inhibition of growth at 20 ppm: 15%
Diaporthe citri; Diaporthe citri, applied alone, 4 ppm, read-out: Efficacy
  inhibition of growth at 4 ppm: 94%
Parastagonospora nodorum; 0.8 ppm
  Efficacy: 100%
Parastagonospora nodorum; 4 ppm
  Efficacy: 100%

## mancozeb [Compound 5.013]
Alternaria alternate; applied alone, 2 ppm
  Efficacy: 6%
Alternaria alternate; applied alone, 10 ppm
  Efficacy: 95%
Cercospora beticola; 0.4 ppm
  Efficacy %: 0%
Cercospora beticola; 2 ppm
  Efficacy %: 100%
Cercospora beticola; 10 ppm
  Efficacy %: 100%
Diaporthe citri; 0.4 ppm
  Efficacy: 1%
Diaporthe citri; 2 ppm
  Efficacy: 45%
Diaporthe citri; 10 ppm
  Efficacy: 100%
Diaporthe citri; applied alone, 0.080 ppm
  Efficacy: 0% and 3%
Diaporthe citri; applied alone, 0.4 ppm
  Efficacy: 0%
Diaporthe citri; applied alone, 2 ppm
  Efficacy: 52% and 53%
Diaporthe citri; applied alone, 10 ppm
  Efficacy: 100%
[1]; 0.08 ppm
  Efficacy %: 1%
[1]; 2 ppm
  Efficacy %: 5%
[1]; 10 ppm
  Efficacy %: 100%

## propineb
Alternaria alternate; 0.8 ppm, alone
  Efficacy %: 18% and 11%
Alternaria alternate; 4 ppm, alone
  Efficacy %: 32% and 21%
Alternaria alternate; 20 ppm, alone
  Efficacy %: 66% and 71%
Alternaria alternate; 100 ppm, alone
  Efficacy %: 92%
Alternaria alternate; applied alone, 4 ppm
  Efficacy: 56%
Alternaria alternate; applied alone, 20 ppm
  Efficacy: 73%
Alternaria alternate; applied alone, 100 ppm
  Efficacy: 96%
Cordana musae; 0.8 ppm
  Efficacy: 0%
Diaporthe citri; 4 ppm
  Efficacy: 23%
Diaporthe citri; 20 ppm
  Efficacy: 100%
Diaporthe citri; 100 ppm
  Efficacy: 97%
Diaporthe citri; applied alone, 0.8 ppm
  Efficacy: 0%
Diaporthe citri; applied alone, 20 ppm
  Efficacy: 98% and 100%
Diaporthe citri; applied alone, 100 ppm
  Efficacy: 100%
[1]; 0.8 ppm
  Efficacy %: 4% and 6%
[1]; 20 ppm
  Efficacy %: 100%
[1]; 100.00 ppm
  Efficacy %: 79%
